Source: patent publication US7964647B2 (Mutual Pharmaceutical Company, Inc., priority 2007, dated 2011)
Like-named read-outs stand apart in the source and are kept apart here.

What was measured:
[1] = Pharmacokinetic study of standard-dose acute gout regimen 4.8 mg over 6 hours (Example 6)
Protocol: This study was a single center, randomized, double-blind, double-dummy pharmacokinetic and exploratory ECG safety study.
Those randomized to moxifloxacin received 1×400 mg tablet.

[2] = metabolite after low-dose colchicine 1.8 mg, all subjects
Protocol: This study was a single-center, single-period, open-label pharmacokinetic study conducted in healthy subjects under fasting conditions.
Subjects received 2×0.6 mg tablets initially followed by 1×0.6 mg tablet 1 hour later.

[3] = metabolite after single and multiple 0.6 mg colchicine doses
Protocol: Subjects received a light breakfast served 60 minutes following dose administration in the morning and the evening dose was administered 90 minutes after an evening meal on Days 15 through 24 only. […] Study periods were separated by a 14-day washout. Following the single dose and the last dose of the multiple dose regimen (beginning on the mornings of Day 1 and Day 25, respectively), blood samples were collected (6 mL each) from each subject within 1 hour prior to dosing and after dose administration at study hours 0.5, 1, 1.5, 2, 3, 4, 6, 8, 10, 12, and 24 (while confined) and 36, 48, 72, and 96 (on an outpatient basis).

[4] = metabolite after standard-dose colchicine 4.8 mg over 6 hours, N = 8
[5] = standard-dose colchicine 4.8 mg

Q: Which results are given for `COc1c(O)cc2c(c1OC)-c1ccc(OC)c(=O)cc1[C@@H](NC(C)=O)CC2` [3-DMC, N-[(7S,12aS)-3-hydroxy-1,2,10-trimethoxy-9-oxo-5,6,7,9-tetrahydrobenzo[a]heptalen-7-yl]-acetamide]?
A: 3-DMC AUC∞, mean [1, 4]: 4.84 ng·h/mL; 3-DMC Ke, mean [1, 4]: 0.1418 h⁻¹; 3-DMC t1/2, mean [1, 4]: 6.93 h; 3-DMC AUC0-t, mean ([1]; metabolite after standard-dose colchicine 4.8 mg over 6 hours, N = 13): 2.09 ng·h/mL; 3-DMC Tmax, mean ([1]; metabolite after standard-dose colchicine 4.8 mg over 6 hours, N = 14): 5.06 h; 3-DMC Cmax, mean ([1]; metabolite after standard-dose colchicine 4.8 mg over 6 hours, N = 15): 0.32 ng/mL; Mean 3-DMC AUC0-t as % of mean colchicine AUC0-t [1, 5]: ~2%; Mean 3-DMC AUC∞ as % of mean colchicine AUC∞ [1, 5]: ~4.1%; Mean 3-DMC Cmax as % of mean colchicine Cmax [1, 5]: approximately 4.7%

Q: For `COc1cc2c(c(OC)c1O)-c1ccc(OC)c(=O)cc1[C@@H](NC(C)=O)CC2` [2-DMC, N-[(7S,12aS)-2-hydroxy-1,3,10-trimethoxy-9-oxo-5,6,7,9-tetrahydrobenzo[a]heptalen-7-yl]-acetamide], which 2-DMC plasma concentrations [2] is on record?
A: below the LOQ

Q: And the 2-DMC plasma concentrations ([1]; metabolite after standard-dose colchicine 4.8 mg, all subjects)?
A: below LOQ

Q: What about the “2-DMC plasma concentrations (all below LOQ)” value [3] of the same compound?
A: < 0.2 ng/mL
